Here are results for 18 compounds from US20240092802A1, “MU-OPIOID RECEPTOR AGONISTS AND USES THEREFOR” (Kures, Inc., priority 2020, published 2024).

One data set deals with Human MOR (Homo sapiens (Human), UniProt P35372). The experiment in a line: BRET G protein activation assay, human MOR in transfected HEK-293T cells. The data set is classed as cell-based. An excerpt: (§1) Transfection. Human or mouse MOR cDNA was transfected alongside GαoB with RLuc8 inserted at position 91 (GαoB-RLuc8), Gβ1 (β1), and Gγ2 fused to the full-length mVenus at its N terminus (mVenus γ2) into HEK-293T cells (5×10^6 cells/plate) in 10-cm dishes using PEI (Polysciences Inc.; Warrington, PA) in a 1:1 ratio diluted in Opti-MEM (Life Technologies Corp.; Grand Island, NY) to assay for G protein activation as described previously (Rives, M.-L. et al. J. Biol. Chem. 2012, 287, 27050-4; Negri, A.; Rives, M.-L.; Caspers, M. J. et al. J. Chem. Inf. Model. 2013, 53, 521-526). Cells were maintained in the Dulbecco's Modified Eagle Medium (high glucose #11965; Life Technologies) supplemented with 10% FBS (Premium Select, Atlanta Biologicals; Atlanta, GA) and 100 U/mL penicillin and 100 μg/mL streptomycin (#15140, Life Technologies). After 24 hours the media was changed, and the experiment was performed 24 hours later (48 hours after transfection).
Chain of Human MOR (P35372 whole entry, the tested form may be a part): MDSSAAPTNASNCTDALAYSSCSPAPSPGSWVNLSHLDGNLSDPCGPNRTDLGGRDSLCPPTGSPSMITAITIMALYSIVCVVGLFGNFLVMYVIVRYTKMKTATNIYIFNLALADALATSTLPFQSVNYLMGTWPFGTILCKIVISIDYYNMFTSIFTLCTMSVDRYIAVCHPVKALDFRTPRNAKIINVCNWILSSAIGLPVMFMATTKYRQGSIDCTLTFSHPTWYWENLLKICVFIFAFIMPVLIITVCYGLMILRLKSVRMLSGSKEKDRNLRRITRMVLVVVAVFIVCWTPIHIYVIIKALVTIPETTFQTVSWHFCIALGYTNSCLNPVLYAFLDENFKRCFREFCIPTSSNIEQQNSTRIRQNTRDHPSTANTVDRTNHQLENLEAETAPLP
(§2) BRET. Transfected cells were dissociated and resuspended in phosphate-buffered saline (PBS). Approximately 200,000 cells/well were added to a black-framed, white well 96-well plate (#60050; Perkin Elmer; Waltham, MA). The microplate was centrifuged and the cells were resuspended in PBS. Then 5 μM of the luciferase substrate coelenterazine H was added to each well for 5 minutes. Following coelenterazine H addition, ligands were added and the BRET signal was measured at 5 minutes on a PHERAstar FS plate reader. Quantification of the BRET signal required calculating the ratio of the light emitted by the energy acceptor, mVenus (510-540 nm), over the light emitted by the energy donor, RLuc8 (485 nm). […] Dose response curves were fit using three-parameter logistics equation in GraphPad Prism 6.

The target in the next data set is Mouse MOR (Mus musculus (Mouse), UniProt P42866). The experiment in a line: BRET G protein activation assay, mouse MOR in transfected HEK-293T cells. The class given is cell-based. To be noted: mean ± SEM.
Chain of Mouse MOR (P42866 whole entry, looked up): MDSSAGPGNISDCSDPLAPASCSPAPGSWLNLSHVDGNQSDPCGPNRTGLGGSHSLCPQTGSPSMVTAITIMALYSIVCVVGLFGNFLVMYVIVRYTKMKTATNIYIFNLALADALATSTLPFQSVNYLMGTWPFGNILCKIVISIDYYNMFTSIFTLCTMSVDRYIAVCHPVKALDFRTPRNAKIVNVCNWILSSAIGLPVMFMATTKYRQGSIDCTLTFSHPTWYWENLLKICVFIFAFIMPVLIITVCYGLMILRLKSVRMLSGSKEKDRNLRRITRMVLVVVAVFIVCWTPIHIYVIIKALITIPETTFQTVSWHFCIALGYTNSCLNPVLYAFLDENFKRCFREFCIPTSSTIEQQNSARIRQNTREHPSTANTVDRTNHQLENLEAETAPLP
Text: as §1, §2
(In general: Bioluminescence resonance energy transfer reports proximity on the nanometre scale.)

Data set [1] is described as follows: Pharmacokinetics and brain distribution after single intraperitoneal dose in male C57BL/6 mice. To be noted: for MRT last: MRTlast. On the procedure:
For each compound, a group of twenty-four male mice were administered with a solution formulation of the drug in normal saline intraperitoneally at a dose of 10 mg/kg. Blood samples (approximately 60 μL) were collected under light isoflurane anesthesia from the retro orbital plexus at 0.08, 0.25, 0.5, 1, 2, 4, 8 and 24 hr. Plasma samples were separated by centrifugation of whole blood and stored below −70° C. until bioanalysis. Immediately after collection of blood, brain samples were collected from each mouse at 0.08, 0.25, 0.5, 1, 2, 4, 8 and 24 hr. Brain samples were homogenized using ice-cold phosphate buffer saline (pH 7.4) and homogenates were stored below −70° C. until analysis. Total homogenate volume was three times the tissue weight. All samples were processed for analysis by protein precipitation using acetonitrile (ACN) and analyzed with fit-for-purpose LC/MS/MS method (LLOQ—1.01 ng/mL in plasma and brain). Pharmacokinetic parameters were calculated using the non-compartmental analysis tool of Phoenix WinNonlin® (Version 6.3).

[2] abbreviates: BRET G protein activation, HEK-293T, mean ± SEM, read-out: EC50 Human MOR.
Setting [3] is: brain, i.p. 10 mg/kg, male C57BL/6 mice.
Setting [4] is: i.p. 10 mg/kg, male C57BL/6 mice.
Setting [5] is: male, C57BL/6, mouse, in vivo, ip, 10 mg/kg.
[6] abbreviates: male, C57BL/6, mouse, in vivo, ip, 10 mg/kg, brain, i.p. 10 mg/kg, male C57BL/6 mice.
Setting [7] is: male, C57BL/6, mouse, in vivo, ip, 10 mg/kg, plasma, i.p. 10 mg/kg, male C57BL/6 mice.

pEC50: −log10 of the molar value. Several values for one entry are separate records, joined by “and”; a condition that tells them apart may be missing. Equal values may be shown once. Where a name gives a salt, the structure may show the parent alone. Read-outs that look alike come from different tables or passages of the source.

As for `CCCCCNC1c2ccccc2N(C)S(=O)(=O)c2ccccc21` (centres unmarked) [compound 8, 6-Methyl-11-(pentylamino)-6,11-dihydrodibenzo[c,f][1,2]thiazepine 5,5-dioxide], the pEC50 on Human MOR (setting [2]) and on Mouse MOR was above 5.00 each time.

As for `CCOC(=O)CCCCNC1c2ccccc2N(C)S(=O)(=O)c2cc(Cl)ccc21` (centres unmarked) [compound 17, Ethyl 5-((3-chloro-6-methyl-5,5-dioxido-6,11-dihydrodibenzo[c,f][1,2]thiazepin-11-yl)amino)pentanoate], the pEC50 at Human MOR (setting [2]) and at Mouse MOR was above 5.00 each time.

With `CN1c2ccccc2C(NCCCCC(=O)O)c2ccc(Cl)cc2S1(=O)=O` (centres unmarked) [compound 18, 5-((3-Chloro-6-methyl-5,5-dioxido-6,11-dihydrodibenzo[c,f][1,2]thiazepin-11-yl)amino)pentanoic acid], the negative-log EC50 (pEC50) on Human MOR (setting [2]) and at Mouse MOR was above 5.00 throughout.

As for `CCCCCNC1c2ccccc2N(C)S(=O)(=O)c2cc(Cl)ccc21` (centres unmarked) [compound 19, 3-Chloro-6-methyl-11-(pentylamino)-6,11-dihydrodibenzo [c,f][1,2]thiazepine 5,5-dioxide], the pEC50 at Human MOR (setting [2]) and on Mouse MOR was above 5.00 throughout.

For the compound `CNC1c2ccccc2N(C)S(=O)(=O)c2cc(Cl)ccc21` (centres unmarked) [compound 20, 3-Chloro-6-methyl-11-(methylamino)-6,11-dihydrodibenzo [c,f][1,2]thiazepine 5,5-dioxide], the pEC50 at Human MOR (setting [2]) and at Mouse MOR was above 5.00 throughout.

With `CCCNC1c2ccccc2N(C)S(=O)(=O)c2cc(Cl)ccc21` (centres unmarked) [compound 21, 3-Chloro-6-methyl-11-(propylamino)-6,11-dihydrodibenzo [c,f][1,2]thiazepine 5,5-dioxide], the pEC50 on Human MOR (setting [2]) and at Mouse MOR was above 5.00 in each case.

Regarding `CC(C)NC1c2ccccc2N(C)S(=O)(=O)c2cc(Cl)ccc21` (centres unmarked) [compound 22, 3-Chloro-11-(isopropylamino)-6-methyl-6,11-dihydrodibenzo [c,f][1,2]thiazepine 5,5-dioxide], the pEC50 at Human MOR (setting [2]) and at Mouse MOR was above 5.00 throughout.

Regarding `COCCCNC1c2ccccc2N(C)S(=O)(=O)c2cc(Cl)ccc21` (centres unmarked) [compound 23, 3-Chloro-11-((3-methoxypropyl)amino)-6-methyl-6,11-dihydrodibenzo [c,f][1,2]thiazepine 5,5-dioxide], in data set [1] (setting [3]), the AUClast is 335.03 ng·h/g and the CL was found to be 260.44 mL/min/kg. In data set [1] (setting [4]), the “half-life compared with tianeptine” value is “much longer half-life” and the “systemic exposure (AUC) compared with tianeptine” value is given as “higher systemic exposure (AUC)”. In addition, in data set [1] (setting [5]), the AUC(0-t) stood at 3060 ng·h/mL; the Cmax is 1540 ng/mL and 378 ng/g. For the same compound, in data set [1] (setting [6]), the MRT last was 1.27 h and the Tmax came out at 0.08 h. In data set [1] (setting [7]), the MRT last was found to be 2.29 h and the Tmax stood at 0.25 h. This compound also gave a half-life in data set [1] (male, C57BL/6, mouse, in vivo, ip, 10 mg/kg, T1/2, brain, i.p. 10 mg/kg, male C57BL/6 mice) of 5.12 h. In data set [1] (male, C57BL/6, mouse, in vivo, ip, 10 mg/kg, T1/2, plasma, i.p. 10 mg/kg, male C57BL/6 mice), this compound showed a half-life of 3.93 h. For the same compound, the CL in data set [1] (plasma, i.p. 10 mg/kg, male C57BL/6 mice) was determined as 44.27 mL/min/kg.

Turning to `COCCCNC1c2ccccc2N(C)S(=O)(=O)c2cc(SC)ccc21` (centres unmarked) [compound 44, 11-((3-Methoxypropyl)amino)-6-methyl-3-(methylthio)-6,11-dihydrodibenzo[c,f][1,2]thiazepine 5,5-dioxide], the pEC50 on Human MOR (setting [2]) and on Mouse MOR was above 5.00 throughout.

Take `COCCCNC1c2ccc(Cl)cc2N(C)S(=O)(=O)c2ccccc21` (centres unmarked) [compound 69, 8-Chloro-11-((3-methoxypropyl)amino)-6-methyl-6,11-dihydrodibenzo [c,f][1,2]thiazepine 5,5-dioxide]: the pEC50 at Human MOR (setting [2]) is above 4.70.

With `COCCCNC1c2ccc(Br)cc2S(=O)(=O)N(C)c2ccsc21` (centres unmarked) [compound 72, 7-Bromo-10-((3-methoxypropyl)amino)-4-methyl-4, 10-dihydrobenzo[f]thieno[3,2-c][1,2]thiazepine 5,5-dioxide], the pEC50 at Human MOR (setting [2]) is above 5.00.

On to `CCOCCCNC1c2ccc(Br)cc2S(=O)(=O)N(C)c2ccsc21` (centres unmarked) [compound 73, 7-Bromo-10-((3-ethoxypropyl)amino)-4-methyl-4, 10-dihydrobenzo[f]thieno[3,2-c][1,2]thiazepine 5,5-dioxide], for which the pEC50 at Human MOR (setting [2]) is above 5.00.

On to `CCOC(=O)CCCCCCNC1c2ccc(Br)cc2S(=O)(=O)N(C)c2ccsc21` (centres unmarked) [compound 74, Ethyl 7-((7-bromo-4-methyl-5,5-dioxido-4, 10-dihydrobenzo[f]thieno[3,2-c][1,2]thiazepin-10-yl)amino)heptanoate], for which, at Human MOR (setting [2]), the pEC50 was above 5.00.

For `COCCCNC1c2ccccc2N(C)S(=O)(=O)c2cc(OCc3ccccc3)ccc21` (centres unmarked) [compound 75, 3-(Benzyloxy)-11-((3-methoxypropyl)amino)-6-methyl-6,11-dihydrodibenzo[c,f][1,2]thiazepine 5,5-dioxide], on Human MOR (setting [2]), the pEC50 was below 4.70.

On to `COCCCNC1c2ccc(Cl)cc2S(=O)(=O)N(C)c2ccsc21` (centres unmarked) [compound 77, 7-Chloro-10-((3-methoxypropyl)amino)-4-methyl-4, 10-dihydrobenzo[f]thieno[3,2-c][1,2]thiazepine 5,5-dioxide], for which the pEC50 on Human MOR (setting [2]) was above 5.00.

Take `CCOCCCNC1c2ccc(Cl)cc2S(=O)(=O)N(C)c2ccsc21` (centres unmarked) [compound 78, 7-Chloro-10-((3-ethoxypropyl)amino)-4-methyl-4, 10-dihydrobenzo[f]thieno[3,2-c][1,2]thiazepine 5,5-dioxide]: on Human MOR (setting [2]), the pEC50 was above 5.00.

With `CCOC(=O)CCCCCCNC1c2ccc(Cl)cc2S(=O)(=O)N(C)c2ccsc21` (centres unmarked) [compound 79, Ethyl 7-((7-chloro-4-methyl-5,5-dioxido-4, 10-dihydrobenzo[f]thieno[3,2-c][1,2]thiazepin-10-yl)amino)heptanoate], the pEC50 on Human MOR (setting [2]) was above 5.00.

`CN1c2ccccc2C(NCCCCCCC(=O)O)c2ccc(I)cc2S1(=O)=O` (centres unmarked) [compound 84, 7-((3-Iodo-6-methyl-5,5-dioxido-6,11-dihydrodibenzo [c,f][1,2]thiazepin-11-yl)amino)heptanoic acid hydrochloride salt] had a pEC50 on Human MOR of 7.40.

As a reminder, the pEC50 is the negative decadic logarithm of the EC50, by convention in mol/L. By AUC(0-t) is commonly meant the area under the concentration-time curve up to a stated or last time point. A higher AUC(0-t) goes with high exposure. By Cmax is commonly meant the peak of the concentration-time curve. The term MRT last denotes a mean duration of stay, worked out from the concentration-time curve. What is called half-life is the time in which the quantity being followed falls by half. A high value points to slow decline. Broadly, the Tmax is the time at which the peak concentration occurs.
